Experimental data from patent US6534278B1, “Screening for antibiotics” (priority 1997, dated 2003).
In brackets after ≈: the same amount, converted by molar mass. Where a SMILES comes first, the peptide text is derived from it. Bridges are numbered along the chain shown (N, C = ends). [ ]: non-standard residue; d: D form. The star is where a group is joined. Ileψ(thiazoline)Cys = CC[C@H](C)[C@H](N)C1=N[C@H](C(=O)*)CS1; dOrn = NCCC[C@@H](N)C(=O)O; Dab = NCC[C@H](N)C(=O)O

How the values were obtained:
[1] = tested on: E. coli strain D22 carrying plasmid pNU305 (ampC and ampR genes from Citrobacter freundii, envA-); assay: β-lactamase induction screen (nitrocefin, OD 490 nm); assay type: cell-based; conditions: for [Induction] (limit of detection of β-lactamase induction): lowest concentration at which β-lactamase induction begins to increase, average over trials
Procedure: Screening Strain: E. coli strain D22 carrying plasmid pNU305 which contains the ampC and ampR genes from Citrobacter freundii, the envA-allele, a colEI origin of replication, and a tetracycline resistance determinant was grown in Luria Broth (LB; 5 g yeast extract, 10 g tryptone, and 10 g sodium chloride per liter of purified water) supplemented with E salts (400 μl E salts per 100 ml LB; the E salts contained-10 g magnesium sulfate heptahydrate, 100 g citric acidmonohydrate, 500 g anhydrous dibasic potassium phosphate, and 175 g of monosodium monoammonium phosphate tetrahydrate per liter of purified water).
Reaction Buffer: Nitrocefin was dissolved in dimethylsulfoxide (DMSO) to a concentration of 25 mg/ml and stored in 1 ml aliquots at −80° C. To prepare a reaction buffer, one of the nitrocefin/DMSO aliquots was added to 50 ml Z buffer with detergents (16.1 g dibasic sodium phosphate heptahydrate, 5.5 g monobasic sodium phosphate monohydrate, 0.75 g potassium chloride, 246 mg magnesium sulfate heptahydrate, 200 mg CTAB, and 100 mg sodium deoxycholate per liter, with the pH adjusted to 7.0) and the mixture was vortexed vigorously. The resulting suspension was filtered through Q5 filter paper (Fisher, Cat. No. 09-790-2e) to remove insoluble material. The filtered reaction buffer was stored at −80° C. until it was needed.
Growth Regimen: A single colony of the E. coli (i.e., a starter colony) was streaked onto an LB plate (with tetracycline) and incubated overnight at 37° C. Cells from the starter colony were then used to inoculate multiple colonies in LB (without tetracycline) to give a cell density no higher than 0.05 OD at 650 nm. The cells were grown at 37° C. under aerating conditions (i.e., shaken at 200 rpm in Erlenmeyer flasks having a volume of at least 10 times that of the culture.
Screening: When the cells had grown to a cell density of 0.25 to 0.8 OD at 650 nm, the culture was diluted to 0.25 OD. 80 μl of the diluted culture was added to each well of a microtiter plate containing 20 μl samples from a simulated natural product library, using an automated liquid dispensing robot from Titrtek (Huntsville, Ala.).
A positive control compound (25 μg/ml fosfomycin) was added to some of the wells and other wells were left untreated, as negative control samples. The samples were incubated on the plate for one hour at 37° C. without shaking.
Assay: 10 μl aliquots were transferred from each well to a second microtiter plate, using a Quadra 96 Model 320 robot (TomTec, Hamden, Conn.). 90 μl of the reaction buffer prepared above was added to each well using a automated liquiddispensing robot (Titrtek, Huntsville, Ala.). The OD of the samples was immediately read at […] in a plate reader (Biorad, Model 3550) to obtain zero point β-lactamase levels. The OD was measured again after incubating the plates at room temperature for 90 minutes (room temperature near 30° C.) or 120 minutes (room temperature below 30° C.).
Data Analysis: An induction value, I, was determined for each sample according to the following formula: I=(OD of sample—median OD)/(OD of induced cells—median OD); where the median OD was determined for each plate and the OD of induced cells was defined as the average of the readings from the control wells exposed to the 25 μg/ml fosfomycin. […] Any sample having I≧0.2 was considered to be positive. Since the assay is calorimetric, the zero-point levels were subtracted from the OD readings.
The same mixtures were also screened for increased β-lactamase using the new methods. The β-lactamase produced was plotted against the logarithm of ramoplanin concentration. FIGS. 3A and 3B show two examples of such. plots. As shown by the leftmost 6 and 7 solid black circles in FIGS. 3A and 3B, respectively, these plots show no effect of low concentrations of added ramoplanin on β-lactamase induction, up to a ramoplanin concentration of about 0.8 to 1.6 μg/ml. At this level, the β-lactamase induction level began to increase. […]

[2] = tested on: envA-cells containing the pNU305 plasmid; assay: microbe, parasite or virus in culture
Procedure: The optical density (OD) of each reaction mixture was measured at 655 nm. The lowest concentration of ramoplanin for which the OD reading was zero was taken to be the MIC.

[3] = lowest concentration with OD 655 nm of zero, 5×10^5 cells/ml, 18 hours, 37° C.

CC[C@H](C)[C@H](N)C1=N[C@H](C(=O)N[C@@H](CC(C)C)C(=O)N[C@H](CCC(=O)O)C(=O)N[C@H](C(=O)N[C@H]2CCCCNC(=O)[C@H](CC(N)=O)NC(=O)[C@@H](CC(=O)O)NC(=O)[C@H](Cc3cnc[nH]3)NC(=O)[C@@H](Cc3ccccc3)NC(=O)[C@H]([C@@H](C)CC)NC(=O)[C@@H](CCCN)NC2=O)[C@@H](C)CC)CS1 [Bacitracin] ({Ileψ(thiazoline)Cys}-L[dE]IK[dOrn]I[dF]H[dD]N; lactam 4-C)
[Induction] (limit of detection of β-lactamase induction) [1]: 1.6 µg/mL
MIC [2, 3]: 12.5 µg/mL (≈ 8.79 µM)

CO[C@@]1(NC(=O)Cc2cccs2)C(=O)N2C(C(=O)O)=C(COC(N)=O)CS[C@@H]21 [Cefoxitin]
[Induction] (limit of detection of β-lactamase induction) [1]: 2.5 µg/mL
MIC ([2]; Escherichia coli, 18 h): 7 µg/mL (≈ 16.4 µM)

O=C(O)c1cn(C2CC2)c2cc(N3CCNCC3)c(F)cc2c1=O [Ciprofloxacin]
[Induction] (limit of detection of β-lactamase induction) [1]: none
MIC ([2]; Escherichia coli, 18 h): 0.01 µg/mL (≈ 0.0302 µM)

N[C@@H]1CON=C1O [Cycloserine]
[Induction] (limit of detection of β-lactamase induction) [1]: 20 µg/mL
MIC ([2]; Escherichia coli, 18 h): 12.5 µg/mL (≈ 122 µM)

CC[C@H]1OC(=O)[C@H](C)[C@@H](O[C@H]2C[C@@](C)(OC)[C@@H](O)[C@H](C)O2)[C@H](C)[C@@H](O[C@@H]2O[C@H](C)C[C@H](N(C)C)[C@H]2O)[C@](C)(O)C[C@@H](C)C(=O)[C@H](C)[C@@H](O)[C@]1(C)O [Erythromycin]
[Induction] (limit of detection of β-lactamase induction) [1]: none
MIC ([2]; Escherichia coli, 18 h): 0.8 µg/mL (≈ 1.09 µM)

C[C@@H]1O[C@@H]1P(=O)(O)O [Fosfomycin]
[Induction] (limit of detection of β-lactamase induction) [1]: 0.7 µg/mL
MIC ([2]; Escherichia coli, 18 h): 0.7 µg/mL (≈ 5.07 µM)

CC[C@@]1([C@@H]2O[C@@H]([C@H]3O[C@@](O)(CO)[C@H](C)C[C@@H]3C)C[C@@H]2C)CC[C@H]([C@]2(C)CC[C@]3(C[C@H](O)[C@@H](C)[C@@H]([C@@H](C)[C@@H](OC)[C@H](C)C(=O)O)O3)O2)O1 [Monensin]
[Induction] (limit of detection of β-lactamase induction) [1]: none
MIC ([2]; Escherichia coli, 18 h): > 100 µg/mL

CC(C)C[C@@H]1NC(=O)[C@@H](Cc2ccccc2)NC(=O)[C@H](CCN)NC(=O)[C@@H](NC(=O)[C@H](CCN)NC(=O)[C@@H](N)[C@@H](C)O)CCNC(=O)[C@H]([C@@H](C)O)NC(=O)[C@H](CCN)NC(=O)[C@H](CCN)NC1=O [Polymyxin B nonapeptide] (H-T[Dab][Dab][Dab][dF]L[Dab][Dab]T; lactam 3-C; N-terminus assumed)
[Induction] (limit of detection of β-lactamase induction) [1]: 6.3 µg/mL
MIC [2, 3]: >100 µg/mL

CO[C@H]1/C=C/O[C@@]2(C)Oc3c(C)c(O)c4c(O)c(c(/C=N/N5CCN(C)CC5)c(O)c4c3C2=O)NC(=O)/C(C)=C\C=C\[C@H](C)[C@H](O)[C@@H](C)[C@@H](O)[C@@H](C)[C@H](OC(C)=O)[C@@H]1C [Rifampicin]
MIC ([2]; Escherichia coli, 18 h): 0.06 µg/mL (≈ 0.0729 µM)

CCCCCCCCCCCCOS(=O)(=O)[O-].[Na+] [Sodium dodecyl sulfate]
[Induction] (limit of detection of β-lactamase induction) [1]: 4 µg/mL
MIC ([2]; Escherichia coli, 18 h): 2 µg/mL

CN[C@H](CC(C)C)C(=O)N[C@H]1C(=O)N[C@@H](CC(N)=O)C(=O)N[C@H]2C(=O)N[C@H]3C(=O)N[C@H](C(=O)N[C@H](C(=O)O)c4cc(O)cc(O)c4-c4cc3ccc4O)[C@H](O)c3ccc(c(Cl)c3)Oc3cc2cc(c3O[C@@H]2O[C@H](CO)[C@@H](O)[C@H](O)[C@H]2O[C@H]2C[C@](C)(N)[C@H](O)[C@H](C)O2)Oc2ccc(cc2Cl)[C@H]1O [Vancomycin]
[Induction] (limit of detection of β-lactamase induction) [1]: 4 µg/mL
MIC ([2]; Escherichia coli, 18 h): 10 µg/mL (≈ 6.9 µM)

Moenomycin
[Induction] (limit of detection of β-lactamase induction) [1]: 1 µg/mL
MIC [2, 3]: 2 µg/mL

Polymyxin B sulfate
[Induction] (limit of detection of β-lactamase induction) [1]: 0.2 µg/mL
MIC [2, 3]: 0.4 µg/mL

Ramoplanin
detection concentration times less than the minimum inhibitory concentration (MIC / limit of detection) ([1]; 20/1.8): about 11 times
[Induction] (limit of detection of β-lactamase induction) [1]: 1.8 µg/mL
[Induction] (limit of detection of β-lactamase induction) ([1]; listed as ramoplanin): about 1.8 μg/ml
MIC [2, 3]: 20 µg/mL
MIC ([2]; lowest concentration with OD 655 nm of zero, 5×10^5 cells/ml, 18 hours, 37° C., listed as ramoplanin): about 20 μg/ml

Triton X-100
[Induction] (limit of detection of β-lactamase induction) [1]: 100 µg/mL
MIC [2, 3]: 500 µg/mL
